The values below come from US10538580B2, “Anti-equol antibody composition and use therefor” (HEALTHCARE SYSTEMS CO., LTD., priority 2016, dated 2020).

This assay deals with anti-equol monoclonal antibody composition. Kind of assay: Evaluating cross-reactivity of anti-equol monoclonal antibody composition. Particulars: for Cross-reactivity with S-equol (%): S-equol as 100%; for S-equol concentration calculated from the calibration curve: reacted with the antibody, read from S-equol calibration curve. The class given is binding, mouse. As to the method:
The cross-reactivity rate can be obtained as follows for example. First, a calibration curve is prepared using S-equol. Compounds including S-equol are prepared with concentrations of 1 μM and 10 μM, and reacted with the antibody at each concentration, and the S-equol concentration is calculated from the calibration curve. For example, if 10 μM of daidzein is added and detected at a concentration of 10 μM based on the calibration curve the cross-reactivity is given as 100%, while if it is detected at a concentration of 1 μM the cross-reactivity is given as 10%, and if it is detected at a concentration of 0.1 μM the cross-reactivity is given as 1%. To investigate the cross-reactivity of the resulting antibody composition, reactivity to 9 kinds of compounds including S-equol (S-equol, daidzein, genistein, glycitein, ellagic acid dihydrate, catechin monohydrate, gallic acid, apigenin and DMA) was investigated. First, a calibration curve was prepared using S-equol. The 9 compounds including S-equol were prepared at concentrations of 1 μM and 10 μM, and reacted with the antibody at each concentration, and cross-reactivity was calculated from the calibration curve.

Turning to `O=C(O)c1cc(O)c(O)c(O)c1` [Gallic acid, gallic acid], the “Cross-reactivity with S-equol (%)” value is, setting by setting: (compound at 1 μM) 0.00%; (compound at 10 μM) 0.74%. Besides, the “S-equol concentration calculated from the calibration curve” value (“S-equol concentration calculated” for short) (compound prepared at 1 μM) is 0.00 and the “S-equol concentration calculated” value (compound prepared at 10 μM) is on record as 0.08.

Consider `Oc1ccc([C@H]2COc3cc(O)ccc3C2)cc1` [S-Equol, S-equol], for which the “Cross-reactivity with S-equol (%)” value by setting is: (compound at 1 μM) 100.00%; (compound at 10 μM) 100.00%. The “S-equol concentration calculated” value reads like this: (compound prepared at 1 μM) 1.34; (compound prepared at 10 μM) 10.84.

Consider `O=c1c(-c2ccc(O)cc2)coc2cc(O)ccc12` [Daidzein, daidzein], for which the “Cross-reactivity with S-equol (%)” value reads like this: (compound at 1 μM) 0.00%; (compound at 10 μM) 0.00%. Besides, the “S-equol concentration calculated” value is, setting by setting: (compound prepared at 1 μM) 0.00; (compound prepared at 10 μM) 0.00.

In the case of `O=c1c(-c2ccc(O)cc2)coc2cc(O)cc(O)c12` [Genistein, genistein], the “Cross-reactivity with S-equol (%)” value runs as follows: (compound at 1 μM) 0.00%; (compound at 10 μM) 0.00%. Further, the “S-equol concentration calculated” value is 0.00 (compound prepared at 1 μM) and 0.00 (compound prepared at 10 μM).

On to (+)-Catechin hydrate, for which the “Cross-reactivity with S-equol (%)” value runs as follows: (compound at 1 μM) 0.00%; (compound at 10 μM) 0.09%. The “S-equol concentration calculated” value by setting is: (compound prepared at 1 μM) 0.00; (compound prepared at 10 μM) 0.01.

`C[C@@H](C(=O)c1ccc(O)cc1O)c1ccc(O)cc1` [R—O-DMA, R—O-desmethylangolensin]: the “Cross-reactivity with S-equol (%)” value (compound at 1 μM) is recorded as 0.00% and the “Cross-reactivity with S-equol (%)” value (compound at 10 μM) was 0.00%. The “S-equol concentration calculated” value is, setting by setting: (compound prepared at 1 μM) 0.00; (compound prepared at 10 μM) 0.00.

Take `O=c1cc(-c2ccc(O)cc2)oc2cc(O)cc(O)c12` [Apigenin, apigenin]: the “Cross-reactivity with S-equol (%)” value by setting is: (compound at 1 μM) 0.00%; (compound at 10 μM) 0.00%. In addition, the “S-equol concentration calculated” value (compound prepared at 1 μM) is 0.00 and the “S-equol concentration calculated” value (compound prepared at 10 μM) was 0.00.

In the case of `O=c1oc2c(O)c(O)cc3c(=O)oc4c(O)c(O)cc1c4c23` [Ellagic acid dihydrate, ellagic acid dihydrate], the “Cross-reactivity with S-equol (%)” value runs as follows: (compound at 1 μM) 0.00%; (compound at 10 μM) 0.00%. Besides, the “S-equol concentration calculated” value is on record as 0.00 (compound prepared at 1 μM) and 0.00 (compound prepared at 10 μM).

As to `Oc1ccc([C@@H]2COc3cc(O)ccc3C2)cc1` [R-Equol, R-equol], the “Cross-reactivity with S-equol (%)” value is, setting by setting: (compound at 1 μM) 89.55%; (compound at 10 μM) 109.59%. Also, the “S-equol concentration calculated” value is 1.20 (compound prepared at 1 μM) and 11.88 (compound prepared at 10 μM).

As to `COc1cc2c(=O)c(-c3ccc(O)cc3)coc2cc1O` [Glycitein, glycitein], the “Cross-reactivity with S-equol (%)” value reads like this: (compound at 1 μM) 0.00%; (compound at 10 μM) 0.00%. Besides, the “S-equol concentration calculated” value is, setting by setting: (compound prepared at 1 μM) 0.00; (compound prepared at 10 μM) 0.00.
